Results taken from patent US20030040478A1, “Chemotherapy treatment” (priority 2002, published 2003).
One block for each compound: values may come before it.

Experiments:
[1] = system: irinotecan-treated mice; details: mouse, in vivo
Description: (§1) FIG. 2. (A) Prevalence of positive bacterial aerobic cultures from mesenteric, splenic, and liver homogenates and whole blood. Groups of mice (n=20 mice for each treatment group) were pretreated for 3 days with either saline or h[Gly2]-GLP-2 as shown in FIG. 1A and euthanized 96 hrs after commencing irinotecan treatment (two injections of 280 mg/kg per dose). *=P<0.05, saline versus h[Gly2]-GLP-2 treated mice after irinotecan. […] (B) The leukocyte count in saline- and h[Gly2]-GLP-2 treated control and irinotecan-treated mice. + and *=p<0.05 for saline- and h[Gly2]-GLP-2-treated groups versus irinotecan-treated mice. #=P<0.05, irinotecan-treated mice pretreated with saline versus h[Gly2]-GLP-2.
Microbiology: At various time points following chemotherapy administration, aliquots of whole blood and tissue homogenates obtained using sterile technique were plated on blood agar plates and incubated at 37° C. for 48 hrs.

[2] = system: irinotecan-treated mice; assay: Leukocyte count after irinotecan; type: in vivo, mouse; details: mice following irinotecan treatment
Description: as §1
Leukocyte Count: Whole blood samples were collected in venipuncture tubes containing EDTA and analyzed using an automated whole blood sorter calibrated for mouse samples. Blood smears were performed on all samples to confirm the automated analysis.

[3] = system: irinotecan-treated CD1 mice, jejunum and colon crypts; assay: Crypt survival and cell number per hemi-crypt (histology) after irinotecan; type: in vivo, mouse; details: small and large intestine following irinotecan; FIGS. 3A-D
Description: FIG. 3. Mean crypt survival (A and C) and mean cell number per hemi-crypt (B and D) from the midjejunum (A and B) and colon (C and D) of control and irinotecan-treated CD1 mice administered either saline (vehicle) or h[Gly2]-GLP-2 as a 3 day pretreatment regimen. Dotted lines represent line of best fit for data shown between 60 and 96 h. Five mice per treatment group were euthanized for analysis commencing immediately prior to the first of two injections of irinotecan (280 mg/kg per dose) and at 12 hr intervals up to 96 hrs. Crypt survival was measured along the entire bowel circumference, and the mean cell number per hemi-crypt determined in 50 consecutive intact crypts per animal. *=P<0.05, **=P<0.001, saline versus h[Gly2]-GLP-2 treated mice.
Histological Analysis: Four- to six-micrometer histological cross sections from the intestine of each mouse were cut and stained with hematoxylin and eosin and micrometry was performed as described. Boushey, R. P. et al., Am. J. Physiol. 277: E937-E947, 1999. The number of cells per hemi-crypt column and the number of surviving crypts per circumference were measured in both the small and large intestine at 12 h intervals (n=5 mice per time point) following irinotecan administration as previously described. Wright, N. A. et al., Cell Tissue Kinet. 22: 425-50, 1989; Withers, H. R. et al., Int. J. Radiat. […] All slides were scored in a blinded fashion.

[4] = system: rodents with indomethacin-induced intestinal injury; details: Boushey et al. 1999, cited from earlier work
[5] = mice following indomethacin-induced intestinal injury
[6] = rodents with indomethacin-induced intestinal injury

bacterial colonies in homogenates [1]: No bacterial colonies were detected
Compound: CC[C@H](C)[C@H](NC(=O)[C@H](Cc1ccccc1)NC(=O)[C@H](CC(=O)O)NC(=O)[C@H](CCCNC(=N)N)NC(=O)[C@H](C)NC(=O)[C@H](C)NC(=O)[C@H](CC(C)C)NC(=O)[C@H](CC(N)=O)NC(=O)[C@H](CC(=O)O)NC(=O)[C@H](CC(C)C)NC(=O)[C@@H](NC(=O)[C@@H](NC(=O)[C@H](CC(N)=O)NC(=O)[C@H](CCSC)NC(=O)[C@H](CCC(=O)O)NC(=O)[C@H](CC(=O)O)NC(=O)[C@H](CO)NC(=O)[C@H](Cc1ccccc1)NC(=O)[C@H](CO)NC(=O)CNC(=O)[C@H](CC(=O)O)NC(=O)CNC(=O)[C@@H](N)Cc1c[nH]cn1)[C@@H](C)O)[C@@H](C)CC)C(=O)N[C@@H](CC(N)=O)C(=O)N[C@@H](Cc1c[nH]c2ccccc12)C(=O)N[C@@H](CC(C)C)C(=O)N[C@H](C(=O)N[C@@H](CCC(N)=O)C(=O)N[C@H](C(=O)N[C@@H](CCCCN)C(=O)N[C@H](C(=O)N[C@H](C(=O)N[C@@H](CC(=O)O)C(=O)O)[C@@H](C)O)[C@@H](C)CC)[C@@H](C)O)[C@@H](C)CC [h[Gly2]-GLP-2]

leukocyte count after irinotecan treatment [2]: significant leukopenia
Compound: CCc1c2c(nc3ccc(OC(=O)N4CCC(N5CCCCC5)CC4)cc13)-c1cc3c(c(=O)n1C2)COC(=O)[C@]3(O)CC [irinotecan, 7-ethyl-10-[4-(1-piperidino)-1-piperidino] carbonyloxycamptothecin]
number of crypts and number of cells within each crypt [3]: significant reduction in both the number of crypts and in the number of cells within each crypt

Compound: GLP-2: 33 amino acid product of the glucagon gene, an intestinotrophic peptide secreted by enteroendocrine cells (HADGSFSDEMNTILDNLAARDFINWLIQTKITD; Glucagon-like peptide 2; UniProt P01275 146-178, looked up)
bacterial infection in the liver and spleen [4, 5]: decreased bacterial infection in the liver and spleen
circulating bacteremia [4, 5]: markedly reduced circulating bacteremia
epithelial damage [4, 6]: reduces epithelial damage
survival [4, 6]: improves survival
